IC50 data for 1 compound are collected here from ChEMBL document CHEMBL3232719 (J Med Chem, 2014).

Molecules are shown by their SMILES.

A short description of the experiment: Inhibition of caspase-like activity of proteasome (unknown origin). Also on record: species or system Homo sapiens.

For the compound `CC(C)C[C@H](NC(=O)[C@@H](NC(=O)c1cccc(-c2ccccc2)n1)[C@@H](C)O)B(O)O` [DELANZOMIB], the half-inhibitory concentration (IC50) was 70 nM.

The IC50 is the concentration needed to halve the response being measured. High values mean weaker potency, low ones greater potency.
